From US12570642B2, “GLP-IR modulating compounds” (Gilead Sciences, Inc., priority 2021, dated 2026)

Molecular target: GLP-1R (Homo sapiens, UniProt P43220)
Experiment: GLP-1R Activation - cAMP Assay
Assay type: cell-based
Conditions: cAMP increase in CHO cells stably expressing GLP-1R; each compound run on one of the two cAMP assays (Assay 1 or Assay 2, not specified)
How it was run: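 cAMP rise read by HTRF after 30 min agonist exposure (10-point titration, 37 °C) in HBSS/20 mM Hepes/0.1% BSA, following 1 h pre-incubation. Cells: stable GLP-1R CHO line, 1,000/well, seeded overnight. Sigmoidal fit of response vs log concentration gives EC50.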

Chain of GLP-1R (P43220 24-463): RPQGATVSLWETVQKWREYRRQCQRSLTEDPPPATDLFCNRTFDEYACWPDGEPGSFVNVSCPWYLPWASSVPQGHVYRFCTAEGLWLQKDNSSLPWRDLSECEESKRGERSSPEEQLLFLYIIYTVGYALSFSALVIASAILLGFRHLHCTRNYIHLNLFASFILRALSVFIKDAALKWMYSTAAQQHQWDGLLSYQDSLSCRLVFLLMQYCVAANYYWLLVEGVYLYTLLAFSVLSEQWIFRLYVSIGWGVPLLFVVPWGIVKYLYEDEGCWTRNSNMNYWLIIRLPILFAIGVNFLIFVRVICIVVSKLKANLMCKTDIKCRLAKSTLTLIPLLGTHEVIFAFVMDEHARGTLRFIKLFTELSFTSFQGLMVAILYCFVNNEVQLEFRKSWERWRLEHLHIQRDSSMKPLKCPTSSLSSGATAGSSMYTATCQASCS

Row | SMILES | EC50
1 | CC1(C)COC[C@H]1n1c(Cc2cc(F)c(-c3cccc(OCc4ccc(C(F)(F)F)cc4C#N)n3)cc2F)nc2ccc(C(=O)O)cc21 [Example 413, (S)-2-(4-(6-((2-cyano-4-(trifluoromethyl)benzyl)oxy)pyridin-2-yl)-2,5-difluorobenzyl)-1-(4,4-dimethyltetrahydrofuran-3-yl)-1H-benzo[d]imidazole-6-carboxylic acid] | 0.281 nM
2 | CC1(C)COC[C@H]1n1c(Cc2cc(F)c(-c3cccc(OCc4cnc(-n5ccnn5)cc4C(F)(F)F)n3)cc2F)nc2ccc(C(=O)O)cc21 [Example 414, (S)-2-(4-(6-((6-(1H-1,2,3-triazol-1-yl)-4-(trifluoromethyl)pyridin-3-yl)methoxy)pyridin-2-yl)-2,5-difluorobenzyl)-1-(4,4-dimethyltetrahydrofuran-3-yl)-1H-benzo[d]imidazole-6-carboxylic acid] | 0.261 nM
3 | CC1(C)COC[C@H]1n1c(Cc2c(F)cc(-c3ccc(Cl)c(OCc4ccc(C#N)cc4)n3)c(F)c2F)nc2ccc(C(=O)O)cc21 [Example 415, (S)-2-(4-(5-chloro-6-((4-cyanobenzyl)oxy)pyridin-2-yl)-2,3,6-trifluorobenzyl)-1-(4,4-dimethyltetrahydrofuran-3-yl)-1H-benzo[d]imidazole-6-carboxylic acid] | 0.491 nM
4 | CC1(C)COC[C@H]1n1c(Cc2c(F)cc(-c3ccc(Cl)c(OCc4ccc(C#N)cc4F)n3)c(F)c2F)nc2ccc(C(=O)O)cc21 [Example 416, (S)-2-(4-(5-chloro-6-((4-cyano-2-fluorobenzyl)oxy)pyridin-2-yl)-2,3,6-trifluorobenzyl)-1-(4,4-dimethyltetrahydrofuran-3-yl)-1H-benzo[d]imidazole-6-carboxylic acid] | 0.235 nM
5 | CC1(C)COC[C@H]1n1c(Cc2cc(F)c(-c3cccc(OCc4ccc(Cl)cc4F)n3)cc2F)nc2cc(F)c(C(=O)O)cc21 [Example 417, (S)-2-(4-(6-((4-chloro-2-fluorobenzyl)oxy)pyridin-2-yl)-2,5-difluorobenzyl)-1-(4,4-dimethyltetrahydrofuran-3-yl)-5-fluoro-1H-benzo[d]imidazole-6-carboxylic acid] | 0.19 nM
6 | CC1(C)COC[C@H]1n1c(Cc2cc(F)c(-c3cccc(OCc4ccc(C#N)cc4)n3)cc2F)nc2cc(F)c(C(=O)O)cc21 [Example 418, (S)-2-(4-(6-((4-cyanobenzyl)oxy)pyridin-2-yl)-2,5-difluorobenzyl)-1-(4,4-dimethyltetrahydrofuran-3-yl)-5-fluoro-1H-benzo[d]imidazole-6-carboxylic acid] | 0.199 nM
7 | CC1(C)COC[C@H]1n1c(Cc2cc(F)c(-c3cccc(OCc4ccc(C#N)cc4F)n3)cc2F)nc2cc(F)c(C(=O)O)cc21 [Example 419, (S)-2-(4-(6-((4-cyano-2-fluorobenzyl)oxy)pyridin-2-yl)-2,5-difluorobenzyl)-1-(4,4-dimethyltetrahydrofuran-3-yl)-5-fluoro-1H-benzo[d]imidazole-6-carboxylic acid] | 0.112 nM
8 | CC1(C)COC[C@H]1n1c(Cc2cc(F)c(-c3cccc(OCc4ccc(C(F)F)nc4)n3)cc2F)nc2ccc(C(=O)O)cc21 [Example 420, (S)-2-(4-(6-((6-(difluoromethyl)pyridin-3-yl)methoxy)pyridin-2-yl)-2,5-difluorobenzyl)-1-(4,4-dimethyltetrahydrofuran-3-yl)-1H-benzo[d]imidazole-6-carboxylic acid] | 0.413 nM
9 | CC1(C)COC[C@H]1n1c(Cc2cc(F)c(-c3cccc(OCc4ccc(C#N)cc4)n3)cc2F)nc2cnc(C(=O)O)cc21 [Example 421, (S)-2-(4-(6-((4-cyanobenzyl)oxy)pyridin-2-yl)-2,5-difluorobenzyl)-1-(4,4-dimethyltetrahydrofuran-3-yl)-1H-imidazo[4,5-c]pyridine-6-carboxylic acid] | 3.02 nM
10 | CC1(C)COC[C@H]1n1c(Cc2cc(F)c(-c3cccc(OCc4ccc(C#N)cc4F)n3)cc2F)nc2cnc(C(=O)O)cc21 [Example 422, (S)-2-(4-(6-((4-cyano-2-fluorobenzyl)oxy)pyridin-2-yl)-2,5-difluorobenzyl)-1-(4,4-dimethyltetrahydrofuran-3-yl)-1H-imidazo[4,5-c]pyridine-6-carboxylic acid] | 3.16 nM
11 | CC1(C)COC[C@H]1n1c(Cc2cc(F)c(-c3cccc(OCc4ccc(Cl)cc4F)n3)cc2F)nc2cnc(C(=O)O)cc21 [Example 423, (S)-2-(4-(6-((4-chloro-2-fluorobenzyl)oxy)pyridin-2-yl)-2,5-difluorobenzyl)-1-(4,4-dimethyltetrahydrofuran-3-yl)-1H-imidazo[4,5-c]pyridine-6-carboxylic acid] | 2.54 nM
12 | CC1(C)COC[C@H]1n1c(Cc2cc(F)c(-c3cccc(OCc4ccc(OCC(F)(F)F)nc4)n3)cc2F)nc2ccc(C(=O)O)cc21 [Example 424, (S)-2-(2,5-difluoro-4-(6-((6-(2,2,2-trifluoroethoxy)pyridin-3-yl)methoxy)pyridin-2-yl)benzyl)-1-(4,4-dimethyltetrahydrofuran-3-yl)-1H-benzo[d]imidazole-6-carboxylic acid] | 0.59 nM
13 | CC1(C)COC[C@H]1n1c(Cc2cc(F)c(-c3cccc(OCc4ccc(C(F)(F)F)nc4)n3)cc2F)nc2ccc(C(=O)O)cc21 [Example 425, (S)-2-(2,5-difluoro-4-(6-((6-(trifluoromethyl)pyridin-3-yl)methoxy)pyridin-2-yl)benzyl)-1-(4,4-dimethyltetrahydrofuran-3-yl)-1H-benzo[d]imidazole-6-carboxylic acid] | 0.494 nM
14 | Cn1cccc(COc2cccc(-c3cc(F)c(Cc4nc5ccc(C(=O)O)cc5n4[C@@H]4COCC4(C)C)cc3F)n2)c1=O [Example 426, (S)-2-(2,5-difluoro-4-(6-((1-methyl-2-oxo-1,2-dihydropyridin-3-yl)methoxy)pyridin-2-yl)benzyl)-1-(4,4-dimethyltetrahydrofuran-3-yl)-1H-benzo[d]imidazole-6-carboxylic acid] | 1.48 nM
15 | Cn1ccc(COc2cccc(-c3cc(F)c(Cc4nc5ccc(C(=O)O)cc5n4[C@@H]4COCC4(C)C)cc3F)n2)cc1=O [Example 427, (S)-2-(2,5-difluoro-4-(6-((1-methyl-2-oxo-1,2-dihydropyridin-4-yl)methoxy)pyridin-2-yl)benzyl)-1-(4,4-dimethyltetrahydrofuran-3-yl)-1H-benzo[d]imidazole-6-carboxylic acid] | 0.501 nM
16 | CC1(C)COC[C@H]1n1c(Cc2cc(F)c(-c3ccc(F)c(OCc4ccc(C#N)cc4F)n3)cc2F)nc2ccc(C(=O)O)nc21 [Example 428, (S)-2-(4-(6-((4-cyano-2-fluorobenzyl)oxy)-5-fluoropyridin-2-yl)-2,5-difluorobenzyl)-3-(4,4-dimethyltetrahydrofuran-3-yl)-3H-imidazo[4,5-b]pyridine-5-carboxylic acid] | 0.105 nM
17 | CC1(C)COC[C@H]1n1c(Cc2cc(F)c(-c3cccc(OCc4ccncc4F)n3)cc2F)nc2ccc(C(=O)O)cc21 [Example 429, (S)-2-(2,5-difluoro-4-(6-((3-fluoropyridin-4-yl)methoxy)pyridin-2-yl)benzyl)-1-(4,4-dimethyltetrahydrofuran-3-yl)-1H-benzo[d]imidazole-6-carboxylic acid] | 0.139 nM
18 | COc1cnccc1COc1cccc(-c2cc(F)c(Cc3nc4ccc(C(=O)O)cc4n3[C@@H]3COCC3(C)C)cc2F)n1 [Example 430, (S)-2-(2,5-difluoro-4-(6-((3-methoxypyridin-4-yl)methoxy)pyridin-2-yl)benzyl)-1-(4,4-dimethyltetrahydrofuran-3-yl)-1H-benzo[d]imidazole-6-carboxylic acid] | 0.02 nM
19 | CC1(C)COC[C@H]1n1c(Cc2cc(F)c(-c3cccc(OCc4ccc(C5CC5)cc4)n3)cc2F)nc2ccc(C(=O)O)cc21 [Example 431, (S)-2-(4-(6-((4-cyclopropylbenzyl)oxy)pyridin-2-yl)-2,5-difluorobenzyl)-1-(4,4-dimethyltetrahydrofuran-3-yl)-1H-benzo[d]imidazole-6-carboxylic acid] | 0.377 nM
20 | CC1(C)COC[C@H]1n1c(Cc2cc(F)c(-c3ccc(Cl)c(OCc4ccc(C#N)cc4)n3)cc2F)nc2ccc(C(=O)O)cc21 [Example 432, (S)-2-(4-(5-chloro-6-((4-cyanobenzyl)oxy)pyridin-2-yl)-2,5-difluorobenzyl)-1-(4,4-dimethyltetrahydrofuran-3-yl)-1H-benzo[d]imidazole-6-carboxylic acid] | 0.114 nM
21 | CC1(C)COC[C@H]1n1c(Cc2cc(F)c(-c3ccc(Cl)c(OCc4ccc(Cl)cc4)n3)cc2F)nc2ccc(C(=O)O)cc21 [Example 433, (S)-2-(4-(5-chloro-6-((4-chlorobenzyl)oxy)pyridin-2-yl)-2,5-difluorobenzyl)-1-(4,4-dimethyltetrahydrofuran-3-yl)-1H-benzo[d]imidazole-6-carboxylic acid] | 0.209 nM
22 | CC1(C)COC[C@H]1n1c(Cc2cc(F)c(-c3ccc(Cl)c(OCc4ccc(C#N)cc4F)n3)cc2F)nc2ccc(C(=O)O)cc21 [Example 434, (S)-2-(4-(5-chloro-6-((4-cyano-2-fluorobenzyl)oxy)pyridin-2-yl)-2,5-difluorobenzyl)-1-(4,4-dimethyltetrahydrofuran-3-yl)-1H-benzo[d]imidazole-6-carboxylic acid] | 0.058 nM
23 | CC1(C)COC[C@H]1n1c(Cc2cc(F)c(-c3cccc(OCc4ccc(Cl)cc4F)n3)cc2F)nc2ccc(C(=O)O)nc21 [Example 437, (S)-2-(4-(6-((4-chloro-2-fluorobenzyl)oxy)pyridin-2-yl)-2,5-difluorobenzyl)-3-(4,4-dimethyltetrahydrofuran-3-yl)-3H-imidazo[4,5-b]pyridine-5-carboxylic acid] | 0.644 nM
24 | CC1(C)COC[C@H]1n1c(Cc2cc(F)c(-c3cccc(OCc4ccc(Cl)cc4)n3)cc2F)nc2ccc(C(=O)O)nc21 [Example 438, (S)-2-(4-(6-((4-chlorobenzyl)oxy)pyridin-2-yl)-2,5-difluorobenzyl)-3-(4,4-dimethyltetrahydrofuran-3-yl)-3H-imidazo[4,5-b]pyridine-5-carboxylic acid] | 0.519 nM
